From patent US12054721B2, “Compositions and methods for 3-hydroxypropionic acid production” (CARGILL, INCORPORATED, priority 2010, dated 2024)

System: yeast cells
Assay: EMS mutagenesis of yeast cells (kill rate)
Format: cell-based
Conditions: 3 μL EMS in 200 μL cell suspension (OD600 around 10), approximately one hour
Description: For example, yeast cells from a fresh YP (yeast extract/peptone)+20 g/L glucose plate or liquid culture (OD600 1-4) are resuspended in sterile water to an OD600 of around 10. 200 μL aliquots of this cell suspension are pipetted into individual tubes and exposed to 3 μL […] (EMS) for approximately one hour, which kills around 65% of the cells. Higher EMS concentrations can also be used to increase the kill rate. After exposure, cells are neutralized with 5% sodium thiosulfate, washed in PBS buffer, recovered in rich media for approximately four hours, and cultured on selective media. Mock samples (no EMS) are also run to ensure that the conditions are selective. Alternatively, cells can be mutagenized using UV irradiation.

CCOS(C)(=O)=O [ethane methyl sulfonate (EMS), ethane methyl sulfonate]
cells killed: around 65%
